Measurements published in patent publication US4943595A, “Perfluorochemicals and process for preparing the same” (The Green Cross Corporation, priority 1984, dated 1990).

Columns and labels:
[1] = comparison between perfluorochemicals; cited from earlier work
[2] = Vapor pressure of the perfluorochemical

SMILES | Vapor pressure ([2]; 38° C.) | other results
FC1(F)C(F)(F)C(F)(F)C2(F)C(F)(F)C(F)(F)C(F)(F)C(F)(F)C2(F)C1(F)F (stereo not shown) [IV] |  | elimination rate (in words) [1]: IV>>III≥I >II
FC(F)(F)N(C(F)(F)C(F)(F)F)C(F)(F)C(F)(C(F)(F)F)C(F)(F)C(F)(C(F)(F)F)C(F)(F)F (stereo not shown) [Example 37, perfluoro-1-ethyl-methylamino-2,4-dimethylpentane] | 12-13 mmHg | 
FC(F)(F)C(F)(F)C(F)(F)C(OC(F)(C(F)(F)F)C(F)(F)C(F)(F)F)(C(F)(F)F)C(F)(F)F (stereo not shown) [Ex. 16, Perfluoro-2-sec-butoxy-2-methylpentane] | 15-16 mmHg | 
FC(F)(F)C(F)(F)C(F)(OC(F)(F)C(F)(C(F)(F)F)C(F)(F)F)C(F)(C(F)(F)F)C(F)(F)F (stereo not shown) [Ex. 4, Perfluoro-3-isobutoxy-2-methyl pentane] |  | Vapor pressure ([2]; 37.5° C.): 14-15 mmHg
FC(F)(F)N(C(F)(F)C(F)(F)F)C(C(F)(F)F)(C(F)(F)F)C(F)(F)C(F)(F)C(F)(F)F [Example 39, Perfluoro-2-methylethylamino-2-methylpentane] | 20-21 mmHg | 
FC(F)(F)C(F)(F)OC(OC(F)(F)C(F)(F)C(F)(F)C(F)(F)C(F)(F)F)(C(F)(F)F)C(F)(F)F [Example 31, perfluoro-2-pentoxy-2-ethoxy propane] | 13-14 mmHg | 
FC(F)(F)C(F)(F)C(F)(OC(F)(F)C(F)(F)C(F)(C(F)(F)F)C(F)(F)F)C(F)(C(F)(F)F)C(F)(F)F (stereo not shown) [Ex. 6, Perfluoro-3-isopentoxy-2-methylpentane] |  | Vapor pressure ([2]; 37.5° C.): 8-9 mmHg
FC(F)(F)C(F)(F)C(F)(F)C(F)(F)OC(F)(C(F)(F)C(F)(F)F)C(F)(C(F)(F)F)C(F)(F)F (stereo not shown) [Ex. 3, Perfluoro-3-n-butoxy-methylpentane] |  | Vapor pressure ([2]; 37.5° C.): 11-13 mmHg
FC(F)(F)C(F)(F)C(F)(F)C(F)(F)C1(F)C(F)(F)C(F)(F)C(F)(F)C(F)(F)C1(F)F [III] |  | elimination rate (in words) [1]: IV>>III≥I >II
FC(F)(F)OC(F)(C(F)(F)F)C(F)(C(F)(C(F)(F)F)C(F)(F)F)C(F)(C(F)(F)F)C(F)(F)F (stereo not shown) [Example 26, perfluoro-2-methoxy-3-isopropyl-4-methylpentane] | 18-19 mmHg | 
FC(F)(F)N(C(F)(F)F)C(F)(C(F)(C(F)(F)F)C(F)(F)F)C(F)(C(F)(F)F)C(F)(F)F [Example 44, perfluoro-3-dimethylamino-2,4-dimethylpentane] | 21-22 mmHg | 
FC(F)(F)N(C(F)(F)F)C(F)(F)C(F)(C(F)(F)F)C(F)(F)C(F)(F)C(F)(F)F (stereo not shown) [Example 33, perfluoro-1-dimethylamino-2-methylpentane] | 37-38 mmHg | 
FC(F)(F)N(C(F)(F)F)C(C(F)(F)F)(C(F)(F)F)C(F)(F)C(F)(F)C(F)(F)F [Example 38, perfluoro-2-dimethylamino-2-methylpentane] | 37-38 mmHg | 
FC(F)(F)C(F)(F)C(F)(F)C(F)(F)C(F)(F)C(F)(F)C(F)(F)OC(F)(F)C(F)(C(F)(F)F)C(F)(F)F [Ex. 22, Perfluoro-1-isobutoxyheptane] | 8-9 mmHg | 
FC(F)(F)C(F)(F)C(F)(F)C(OC(F)(C(F)(F)F)C(F)(F)F)(C(F)(F)F)C(F)(F)F [Ex. 13, Perfluoro-2-isopropoxy-2-methylpentane] | 29-30 mmHg | 
FC(F)(F)C(F)(F)C(F)(F)OC(F)(C(F)(F)C(F)(F)F)C(F)(C(F)(F)F)C(F)(F)F (stereo not shown) [Example 1, perfluoro-3-n-propoxy-2-methylpentane] | 29 mmHg | 
FC(F)(F)C(F)(F)C(F)(OC(F)(C(F)(F)F)C(F)(F)F)C(F)(C(F)(F)F)C(F)(F)F (stereo not shown) [Ex. 2, Perfluroo-3-isopropoxy-2-methylpentane] |  | Vapor pressure ([2]; 37.5° C.): 35-36 mmHg
FC(F)(F)N(C(F)(F)C(F)(F)F)C(F)(F)C(F)(C(F)(F)F)C(F)(F)C(F)(F)C(F)(F)F (stereo not shown) [Example 34, perfluoro-1-ethylmethylamino-2-methylpentane] | 21 mmHg | 
FC(F)(F)N(C(F)(F)F)C(F)(C(F)(F)C(F)(F)F)C(F)(C(F)(F)F)C(F)(F)F (stereo not shown) [Example 42, 3-perfluoro-3-dimethylamino-2-methylpentane] | 37-38 mmHg | 
FC(F)(F)C(F)(F)C(F)(F)OC(OC(F)(F)C(F)(F)C(F)(F)F)(C(F)(F)F)C(F)(F)F [Example 32, perfluoro-2,2-di-n-propoxy-propane] | 29-30 mmHg | 
FC(F)(F)C(F)(F)C(F)(F)C(F)(F)OC(C(F)(F)F)(C(F)(F)F)C(F)(F)C(F)(F)C(F)(F)F [Ex. 14, Perfluoro-2-n-butoxy-2-methylpentane] | 13-14 mmHg | 
FC(F)(F)C(F)(F)OC(F)(F)C(F)(C(F)(F)F)C(F)(OC(F)(F)C(F)(F)F)C(F)(F)C(F)(F)F (stereo not shown) [Example 28, perfluoro-1,3-diethoxy-2-methylpentane] | 13-14 mmHg | 
FC(F)(F)C(F)(F)C(F)(F)C(OC(F)(F)C(F)(F)C(F)(C(F)(F)F)C(F)(F)F)(C(F)(F)F)C(F)(F)F [Ex. 17, Perfluoro-2-isovaleroxy-2-methylpentane] | 9-10 mmHg | 

SMILES | Vapor pressure ([2]; 38° C.) | other results
FC(F)(F)C(F)(F)C1(C(F)(F)F)C(F)(C(F)(F)F)OC(F)(C(F)(F)F)C1(F)C(F)(F)F (stereo not shown) [II] |  | elimination rate (in words) [1]: IV>>III≥I >II
FC(F)(F)C(F)(F)N(C(F)(F)C(F)(F)F)C(F)(C(F)(F)C(F)(F)F)C(F)(C(F)(F)F)C(F)(F)F (stereo not shown) [Example 43, perfluoro-3-diethylamino-2-methylpentane] | 9-10 mmHg | 
FC(F)(F)C(F)(C(F)(F)F)C(F)(F)OC(F)(C(F)(C(F)(F)F)C(F)(F)F)C(F)(C(F)(F)F)C(F)(F)F [Ex. 11, Perfluoro-3-isobutoxy-2,4-dimethylpentane] | 8-9 mmHg | 
FC(F)(F)C(F)(F)C(F)(F)C(F)(F)C(F)(F)C(F)(F)C(F)(F)OC(F)(C(F)(F)F)C(F)(F)F [Ex. 20, Perfluoro-1-isopropoxyheptane] | 14-15 mmHg | 
FC(F)(F)C(F)(F)OC(F)(F)C(F)(F)C(F)(F)C(F)(F)C(F)(F)C(F)(F)C(F)(F)F [Ex. 19, Perfluoro-1-ethoxyheptane] | 33 mmHg | 
FC(F)(F)N(C(F)(F)C(F)(F)C(F)(F)F)C(C(F)(F)F)(C(F)(F)F)C(F)(F)C(F)(F)C(F)(F)F [Example 40, perfluoro-2-methylpropylamino-2-methylpentane] | 9-10 mmHg | 
FC(F)(F)C(F)(F)OC(F)(C(F)(F)F)C(F)(C(F)(C(F)(F)F)C(F)(F)F)C(F)(C(F)(F)F)C(F)(F)F (stereo not shown) [Example 27, perfluoro-2-ethoxy-3-isopropyl-4-methylpentane] | 10-11 mmHg | 
FC(F)(F)C(F)(F)C(F)(OC(F)(C(F)(F)C(F)(F)F)C(F)(C(F)(F)F)C(F)(F)F)C(F)(F)F (stereo not shown) [Ex. 5, Perfluoro-3-sec-butoxy-2-methylpentane] |  | Vapor pressure ([2]; 37.5° C.): 13-14 mmHg
FC(F)(F)C(F)(F)OC(F)(C(F)(C(F)(F)F)C(F)(F)F)C(F)(C(F)(F)F)C(F)(F)F [Ex. 8, Perfluoro-3-ethoxy-2,4-dimethylpentane] | 30-31 mmHg | 
FC(F)(F)OC(F)(C(F)(F)F)C(F)(F)C(C(F)(F)F)(C(F)(F)C(F)(F)F)C(F)(F)C(F)(F)F (stereo not shown) [Example 24, perfluoro-2-methoxy-4-ethyl-4-methylhexane] | 17-18 mmHg | 
FC(F)(F)C(F)(F)N(C(F)(F)C(F)(F)F)C(F)(F)C(F)(C(F)(F)F)C(F)(F)C(F)(F)C(F)(F)F (stereo not shown) [Example 35, perfluoro-1-diethylamino-2-methylpentane] | 8-9 mmHg | 
FC(F)(F)OC(F)(F)C(F)(C(F)(F)F)C(F)(OC(F)(F)F)C(F)(F)C(F)(F)F (stereo not shown) [Example 29, perfluoro-1,3-dimethoxy-2-methylpentane] | 48-50 mmHg | 
FC(F)(F)N(C(F)(F)F)C(F)(F)C(C(F)(F)F)(C(F)(F)F)C(F)(F)C(F)(F)C(F)(F)F [Example 41, Perfluoro-1-dimethylamino-2,2-dimethylpentane] | 18-19 mmHg | 
FC(F)(F)C(F)(F)C(F)(F)C(F)(F)C(F)(F)C(F)(F)C(F)(F)OC(F)(C(F)(F)F)C(F)(F)C(F)(F)F (stereo not shown) [Ex. 23, Perfluoro-1-sec-butoxyheptane] | 9-10 mmHg | 
FC(F)(F)C(F)(F)OC(F)(C(F)(F)F)C(F)(F)C(C(F)(F)F)(C(F)(F)C(F)(F)F)C(F)(F)C(F)(F)F (stereo not shown) [Example 25, perfluoro-2-ethoxy-4-ethyl-4-methylhexane] | 8-9 mmHg | 
FC(F)(F)C(F)(F)C(F)(F)OC(F)(C(F)(C(F)(F)F)C(F)(F)F)C(F)(C(F)(F)F)C(F)(F)F [Example 7, Perfluoro-3-propoxy-2,4-dimethylpentane] | 16-17 mmHg | 
FC(F)(F)N(C(F)(F)F)C(F)(F)C(F)(C(F)(F)F)C(F)(F)C(F)(C(F)(F)F)C(F)(F)F (stereo not shown) [Example 36, Perfluoro-1-dimethylamino-2,4-dimethylpentane] | 18-19 mmHg | 
FC(F)(F)C(F)(F)C(F)(F)C(F)(F)OC(F)(F)C(F)(F)C(F)(F)C(F)(F)C(F)(F)C(F)(F)C(F)(F)F [Ex. 21, Perfluoro-1-n-butoxyheptane] | 8-9 mmHg | 
FC(F)(F)C(F)(F)C(F)(F)C(F)(F)C(F)(F)OC(F)(F)C(F)(F)C(F)(F)C(F)(F)C(F)(F)F [I] |  | elimination rate (in words) [1]: IV>>III≥I >II
FC(F)(F)C(F)(F)C(F)(F)C(F)(F)OC(F)(C(F)(C(F)(F)F)C(F)(F)F)C(F)(C(F)(F)F)C(F)(F)F [Ex. 10, Perfluoro-3-n-butoxy-2,4-dimethylpentane] | 8-9 mmHg | 
FC(F)(F)C(F)(F)C(F)(F)OC(C(F)(F)F)(C(F)(F)F)C(F)(F)C(F)(F)C(F)(F)F [Example 12, Perfluoro-2-n-propoxy-2-methylpentane] | 33 mmHg | 
FC(F)(F)OC(OC(F)(F)C(F)(F)C(F)(F)C(F)(F)C(F)(F)F)(C(F)(F)F)C(F)(F)F [Example 30, perfluoro-2-pentoxy-2-methoxypropane] | 28-29 mmHg | 
FC(F)(F)C(F)(F)C(F)(F)C(OC(F)(F)C(F)(C(F)(F)F)C(F)(F)F)(C(F)(F)F)C(F)(F)F [Ex. 15, Perfluoro-2-isobutoxy-2-methylpentane] | 15-16 mmHg | 
